In the NIST ThermoML archive (doi:10.1021/je700670k):
Numbers after ± are expanded uncertainties.

Details: Liquid, Vibrating tube method

CCC[N+]1(C)CCCC1.O=S(=O)([N-]S(=O)(=O)C(F)(F)F)C(F)(F)F
mass density [kg/m3]
Details | 293.15 K | 303.15 K | 313.15 K | 323.15 K | 333.15 K | 353.15 K | 393.15 K
100 kPa | 1438.6 ± 12 | 1428.6 ± 12 | 1418.6 ± 12 | 1408.7 ± 12 | 1399 ± 12 | 1380 ± 12 | 1343.2 ± 12
1000 kPa | 1439.3 ± 12 | 1429.3 ± 12 | 1419.3 ± 12 | 1409.4 ± 12 | 1399.7 ± 12 | 1380.8 ± 12 | 1344 ± 12
2000 kPa | 1440 ± 12 | 1430 ± 12 | 1420.1 ± 12 | 1410.1 ± 12 | 1400.5 ± 12 | 1381.7 ± 12 | 1344.9 ± 12
3000 kPa | 1440.7 ± 12 | 1430.8 ± 12 | 1420.9 ± 12 | 1411 ± 12 | 1401.4 ± 12 | 1382.5 ± 12 | 1345.8 ± 12
4000 kPa | 1441.4 ± 12 | 1431.6 ± 12 | 1421.7 ± 12 | 1411.8 ± 12 | 1402.2 ± 12 | 1383.4 ± 12 | 1346.8 ± 12
5000 kPa | 1442.1 ± 12 | 1432.2 ± 12 | 1422.5 ± 12 | 1412.6 ± 12 | 1403 ± 12 | 1384.3 ± 12 | 1347.8 ± 12
7500 kPa | 1444 ± 12 | 1434.1 ± 12 | 1424.3 ± 12 | 1414.4 ± 12 | 1405 ± 12 | 1386.4 ± 12 | 1350.2 ± 12
10000 kPa | 1445.8 ± 12 | 1435.9 ± 12 | 1426.3 ± 12 | 1416.3 ± 12 | 1407 ± 12 | 1388.5 ± 12 | 1352.5 ± 12
15000 kPa | 1449.2 ± 12 | 1439.4 ± 12 | 1429.9 ± 12 | 1420.1 ± 12 | 1410.8 ± 12 | 1392.6 ± 12 | 1357.1 ± 12
20000 kPa | 1452.6 ± 12 | 1443 ± 12 | 1433.4 ± 12 | 1423.8 ± 12 | 1414.6 ± 12 | 1396.6 ± 12 | 1361.5 ± 12
25000 kPa | 1456 ± 12 | 1446.4 ± 12 | 1436.9 ± 12 | 1427.4 ± 12 | 1418.3 ± 12 | 1400.4 ± 12 | 1365.8 ± 12
30000 kPa | 1459.2 ± 12 | 1449.7 ± 12 | 1440.3 ± 12 | 1431 ± 12 | 1421.9 ± 12 | 1404.2 ± 12 | 1370 ± 12
35000 kPa | 1462.3 ± 12 | 1453 ± 12 | 1443.6 ± 12 | 1434.4 ± 12 | 1425.4 ± 12 | 1407.9 ± 12 | 1374 ± 12

CCC[n+]1cccc(C)c1.O=S(=O)([N-]S(=O)(=O)C(F)(F)F)C(F)(F)F
mass density [kg/m3]
Details | 293.15 K | 303.15 K | 313.15 K | 323.15 K | 333.15 K | 353.15 K | 393.15 K
100 kPa | 1454.9 ± 12 | 1444.4 ± 12 | 1433.9 ± 12 | 1423.7 ± 12 | 1413.6 ± 12 | 1393.7 ± 12 | 1354.8 ± 12
1000 kPa | 1455.6 ± 12 | 1445.3 ± 12 | 1434.8 ± 12 | 1424.5 ± 12 | 1414.4 ± 12 | 1394.6 ± 12 | 1355.8 ± 12
2000 kPa | 1456.4 ± 12 | 1446.1 ± 12 | 1435.6 ± 12 | 1425.3 ± 12 | 1415.3 ± 12 | 1395.5 ± 12 | 1356.9 ± 12
3000 kPa | 1457.1 ± 12 | 1446.8 ± 12 | 1436.4 ± 12 | 1426.1 ± 12 | 1416.1 ± 12 | 1396.4 ± 12 | 1357.9 ± 12
4000 kPa | 1457.9 ± 12 | 1447.6 ± 12 | 1437.3 ± 12 | 1427 ± 12 | 1417 ± 12 | 1397.4 ± 12 | 1359 ± 12
5000 kPa | 1458.7 ± 12 | 1448.4 ± 12 | 1438 ± 12 | 1427.8 ± 12 | 1417.8 ± 12 | 1398 ± 12 | 1360 ± 12
7500 kPa | 1460.5 ± 12 | 1450.3 ± 12 | 1440 ± 12 | 1429.9 ± 12 | 1419.8 ± 12 | 1400.2 ± 12 | 1362.5 ± 12
10000 kPa | 1462.4 ± 12 | 1452.2 ± 12 | 1441.9 ± 12 | 1431.9 ± 12 | 1421.9 ± 12 | 1402.5 ± 12 | 1365 ± 12
15000 kPa | 1466.1 ± 12 | 1455.9 ± 12 | 1445.7 ± 12 | 1435.7 ± 12 | 1425.9 ± 12 | 1406.8 ± 12 | 1369.7 ± 12
20000 kPa | 1469.6 ± 12 | 1459.6 ± 12 | 1449.5 ± 12 | 1439.5 ± 12 | 1429.9 ± 12 | 1411 ± 12 | 1374.3 ± 12
25000 kPa | 1473.1 ± 12 | 1463.1 ± 12 | 1453.1 ± 12 | 1443.3 ± 12 | 1433.7 ± 12 | 1415.1 ± 12 | 1378.8 ± 12
30000 kPa | 1476.5 ± 12 | 1466.6 ± 12 | 1456.7 ± 12 | 1446.9 ± 12 | 1437.4 ± 12 | 1419 ± 12 | 1383.2 ± 12
35000 kPa | 1479.8 ± 12 | 1470 ± 12 | 1460.3 ± 12 | 1450.5 ± 12 | 1441.1 ± 12 | 1422.9 ± 12 | 1387.5 ± 12

CCC[N+]1(C)CCCCC1.O=S(=O)([N-]S(=O)(=O)C(F)(F)F)C(F)(F)F
mass density [kg/m3]
Details | 293.15 K | 303.15 K | 313.15 K | 323.15 K | 333.15 K | 353.15 K | 393.15 K
100 kPa | 1416.9 ± 12 | 1407.2 ± 12 | 1397.4 ± 12 | 1387.6 ± 12 | 1377 ± 12 | 1358.5 ± 12 | 1322.3 ± 12
1000 kPa | 1417.6 ± 12 | 1407.8 ± 12 | 1398.1 ± 12 | 1388.3 ± 12 | 1377.8 ± 12 | 1359.3 ± 12 | 1323.2 ± 12
2000 kPa | 1418.3 ± 12 | 1408.6 ± 12 | 1398.9 ± 12 | 1389.1 ± 12 | 1378.6 ± 12 | 1360.2 ± 12 | 1324.3 ± 12
3000 kPa | 1419 ± 12 | 1409.3 ± 12 | 1399.5 ± 12 | 1389.9 ± 12 | 1379.3 ± 12 | 1361.1 ± 12 | 1325.3 ± 12
4000 kPa | 1419.6 ± 12 | 1410 ± 12 | 1400.2 ± 12 | 1390.6 ± 12 | 1380.1 ± 12 | 1361.9 ± 12 | 1326.2 ± 12
5000 kPa | 1420.3 ± 12 | 1410.7 ± 12 | 1401 ± 12 | 1391.4 ± 12 | 1380.9 ± 12 | 1362.8 ± 12 | 1327.3 ± 12
7500 kPa | 1422 ± 12 | 1412.5 ± 12 | 1402.8 ± 12 | 1393.2 ± 12 | 1382.8 ± 12 | 1364.7 ± 12 | 1329.7 ± 12
10000 kPa | 1423.8 ± 12 | 1414.3 ± 12 | 1404.7 ± 12 | 1395.1 ± 12 | 1384.8 ± 12 | 1366.7 ± 12 | 1331.8 ± 12
15000 kPa | 1427.1 ± 12 | 1417.7 ± 12 | 1408.2 ± 12 | 1398.7 ± 12 | 1388.5 ± 12 | 1370.7 ± 12 | 1336.3 ± 12
20000 kPa | 1430.4 ± 12 | 1421.1 ± 12 | 1411.7 ± 12 | 1401.9 ± 12 | 1392.3 ± 12 | 1374.7 ± 12 | 1340.7 ± 12
25000 kPa | 1433.7 ± 12 | 1424.4 ± 12 | 1415.1 ± 12 | 1405 ± 12 | 1396 ± 12 | 1378.4 ± 12 | 1344.8 ± 12
30000 kPa | 1436.8 ± 12 | 1427.6 ± 12 | 1418.4 ± 12 | 1408.6 ± 12 | 1399.5 ± 12 | 1382.1 ± 12 | 1348.9 ± 12
35000 kPa | 1439.9 ± 12 | 1430.7 ± 12 | 1421.7 ± 12 | 1412.1 ± 12 | 1403 ± 12 | 1385.7 ± 12 | 1353 ± 12

CCCC[N+]1(C)CCCC1.O=S(=O)([N-]S(=O)(=O)C(F)(F)F)C(F)(F)F
mass density [kg/m3]
Details | 293.15 K | 303.15 K | 313.15 K | 323.15 K | 333.15 K | 353.15 K | 393.15 K
100 kPa | 1409.1 ± 12 | 1399.3 ± 12 | 1389.5 ± 12 | 1379.8 ± 12 | 1370.2 ± 12 | 1351.5 ± 12 | 1315.2 ± 12
1000 kPa | 1409.7 ± 12 | 1399.9 ± 12 | 1390.1 ± 12 | 1380.4 ± 12 | 1370.9 ± 12 | 1352.3 ± 12 | 1316.1 ± 12
2000 kPa | 1410.5 ± 12 | 1400.7 ± 12 | 1390.9 ± 12 | 1381.2 ± 12 | 1371.7 ± 12 | 1353.2 ± 12 | 1317.1 ± 12
3000 kPa | 1411.2 ± 12 | 1401.4 ± 12 | 1391.7 ± 12 | 1382 ± 12 | 1372.5 ± 12 | 1354.1 ± 12 | 1318.1 ± 12
4000 kPa | 1411.9 ± 12 | 1402.2 ± 12 | 1392.5 ± 12 | 1382.8 ± 12 | 1373.4 ± 12 | 1354.9 ± 12 | 1319.1 ± 12
5000 kPa | 1412.6 ± 12 | 1402.9 ± 12 | 1393.3 ± 12 | 1383.6 ± 12 | 1374.2 ± 12 | 1355.8 ± 12 | 1320 ± 12
7500 kPa | 1414.4 ± 12 | 1404.8 ± 12 | 1395.2 ± 12 | 1385.6 ± 12 | 1376.1 ± 12 | 1357.9 ± 12 | 1322.5 ± 12
10000 kPa | 1416.1 ± 12 | 1406.6 ± 12 | 1397 ± 12 | 1387.5 ± 12 | 1378.1 ± 12 | 1360 ± 12 | 1324.8 ± 12
15000 kPa | 1419.6 ± 12 | 1410.1 ± 12 | 1400.7 ± 12 | 1391.3 ± 12 | 1382 ± 12 | 1364.1 ± 12 | 1329.5 ± 12
20000 kPa | 1423 ± 12 | 1413.6 ± 12 | 1404.3 ± 12 | 1394.9 ± 12 | 1385.8 ± 12 | 1368.1 ± 12 | 1333.7 ± 12
25000 kPa | 1426.3 ± 12 | 1417 ± 12 | 1407.7 ± 12 | 1398.5 ± 12 | 1389.5 ± 12 | 1371.9 ± 12 | 1338 ± 12
30000 kPa | 1429.6 ± 12 | 1420.3 ± 12 | 1411.1 ± 12 | 1402 ± 12 | 1393.1 ± 12 | 1375.7 ± 12 | 1342.2 ± 12
35000 kPa | 1432.8 ± 12 | 1423.6 ± 12 | 1414.4 ± 12 | 1405.4 ± 12 | 1396.6 ± 12 | 1379.4 ± 12 | 1346.2 ± 12
